Results reported in patent US20240190880A1 (THE REGENTS OF THE UNIVERSITY OF MICHIGAN, priority 2021, published 2024).

Each molecule was assayed against T1, ER (Homo sapiens, UniProt P03372) (assay: ER degradation activity, in-cell western blot analysis in T47D cells). Conditions: 16 hours, Table A does not say which cell line (T47D or MCF7), read-out: Potency (DC50).
T1 construct: host or cells: T47D and MCF7 human breast cancer cells
T1 sequence (P03372 1-595): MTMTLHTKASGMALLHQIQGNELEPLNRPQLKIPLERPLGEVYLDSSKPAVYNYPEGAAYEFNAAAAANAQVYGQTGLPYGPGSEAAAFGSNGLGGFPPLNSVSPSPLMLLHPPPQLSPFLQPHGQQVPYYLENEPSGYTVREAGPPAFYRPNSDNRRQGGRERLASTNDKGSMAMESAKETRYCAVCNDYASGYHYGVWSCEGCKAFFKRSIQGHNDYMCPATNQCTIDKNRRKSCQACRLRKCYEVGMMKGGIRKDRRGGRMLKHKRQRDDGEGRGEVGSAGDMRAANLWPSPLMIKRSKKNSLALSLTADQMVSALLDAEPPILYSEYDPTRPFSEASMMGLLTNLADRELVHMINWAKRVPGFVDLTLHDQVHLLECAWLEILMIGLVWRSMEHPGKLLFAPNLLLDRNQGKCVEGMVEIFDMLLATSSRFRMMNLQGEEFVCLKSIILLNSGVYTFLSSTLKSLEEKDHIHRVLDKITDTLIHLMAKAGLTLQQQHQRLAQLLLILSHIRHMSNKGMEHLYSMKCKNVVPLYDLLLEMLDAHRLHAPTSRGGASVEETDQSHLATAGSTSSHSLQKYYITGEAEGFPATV
Format: cell-based
How it was run: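 T47D cells grown in DMEM with 10% FBS were treated with compounds for 16 hours at 0.5% DMSO final. ER was detected by in-cell western using 680/800 near-infrared secondary antibodies. Residual ER is given as percent of untreated and DMSO-treated wells set to 100%.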

Row | DC50 | Structure (SMILES)
1 | > 100 nM | O=C1CCC(N2C(=O)c3cc4c(cc3C2=O)CN(C(=O)CN2CCC3(CC2)CCN(c2ccc([C@@H]5c6ccc(O)cc6CC[C@@H]5c5ccccc5)cc2)C3)C4)C(=O)N1 (mixture of isomers) [E 141, Rac-2-(2,6-dioxopiperidin-3-yl)-6-(2-(2-(4-((1R,2S)-6-hydroxy-2-phenyl-1,2,3,4-tetrahydronaphthalen-1-yl)phenyl)-2,8-diazaspiro[4.5]decan-8-yl)acetyl)-6,7-dihydropyrrolo[3,4-f]isoindole-1,3(2H,5H)-dione]
2 | > 100 nM | O=C1CCC(N2C(=O)c3cc4c(cc3C2=O)CN(C(=O)CN2CCC3(CC2)CN(c2ccc([C@@H]5c6ccc(O)cc6CC[C@@H]5c5ccccc5)cc2)C3)C4)C(=O)N1 (mixture of isomers) [E 150, Rac-2-(2,6-dioxopiperidin-3-yl)-6-(2-(2-(4-((1R,2S)-6-hydroxy-2-phenyl-1,2,3,4-tetrahydronaphthalen-1-yl)phenyl)-2,7-diazaspiro[3.5]nonan-7-yl)acetyl)-6,7-dihydropyrrolo[3,4-f]isoindole-1,3(2H,5H)-dione]
3 | > 100 nM | O=C1CCC(N2C(=O)c3cc4c(cc3C2=O)CN(C(=O)CN2CCC3(CC2)CCN(c2ccc([C@@H]5c6ccc(O)cc6CC[C@@H]5c5ccc(F)cc5)cc2)C3)C4)C(=O)N1 (mixture of isomers) [E 152, Rac-2-(2,6-dioxopiperidin-3-yl)-6-(2-(2-(4-((1R,2S)-2-(4-fluorophenyl)-6-hydroxy-1,2,3,4-tetrahydronaphthalen-1-yl)phenyl)-2,8-diazaspiro[4.5]decan-8-yl)acetyl)-6,7-dihydropyrrolo[3,4-f]isoindole-1,3(2H,5H)-dione]
4 | > 100 nM | O=C1CCC(N2C(=O)c3cc4c(cc3C2=O)CN(C(=O)CN2CCC3(CC2)CCN(c2ccc([C@@H]5c6ccc(O)cc6CC[C@@H]5c5ccccc5)c(F)c2)C3)C4)C(=O)N1 (mixture of isomers) [E 153, Rac-2-(2,6-dioxopiperidin-3-yl)-6-(2-(2-(3-fluoro-4-((1S,2S)-6-hydroxy-2-phenyl-1,2,3,4-tetrahydronaphthalen-1-yl)phenyl)-2,8-diazaspiro[4.5]decan-8-yl)acetyl)-6,7-dihydropyrrolo[3,4-f]isoindole-1,3(2H,5H)-dione]
5 | > 100 nM | O=C1CCC(N2C(=O)c3cc4c(cc3C2=O)CN(C(=O)CN2CCC3(CC2)CCN(c2ccc([C@@H]5c6ccc(O)cc6CC[C@@H]5c5ccccc5)cc2F)C3)C4)C(=O)N1 (mixture of isomers) [E 154, Rac-2-(2,6-dioxopiperidin-3-yl)-6-(2-(2-(2-fluoro-4-((1R,2S)-6-hydroxy-2-phenyl-1,2,3,4-tetrahydronaphthalen-1-yl)phenyl)-2,8-diazaspiro[4.5]decan-8-yl)acetyl)-6,7-dihydropyrrolo[3,4-f]isoindole-1,3(2H,5H)-dione]
6 | > 100 nM | O=C1CCC(N2C(=O)c3cc4c(cc3C2=O)CN(C(=O)CN2CCC3(CC2)CCN(c2c(F)cc([C@@H]5c6ccc(O)cc6CC[C@@H]5c5ccccc5)cc2F)C3)C4)C(=O)N1 (mixture of isomers) [E 155, Rac-6-(2-(2-(2,6-difluoro-4-((1R,2S)-6-hydroxy-2-phenyl-1,2,3,4-tetrahydronaphthalen-1-yl)phenyl)-2,8-diazaspiro[4.5]decan-8-yl)acetyl)-2-(2,6-dioxopiperidin-3-yl)-6,7-dihydropyrrolo[3,4-f]isoindole-1,3(2H,5H)-dione]
7 | 10 to 100 nM | O=C1CCC(N2C(=O)c3cc4c(cc3C2=O)CN(CC2CCN(C(=O)C3CN(c5ccc([C@@H]6c7ccc(O)cc7CC[C@@H]6c6ccccc6)cc5)C3)CC2)C4)C(=O)N1 (mixture of isomers) [E 156, Rac-2-(2,6-dioxopiperidin-3-yl)-6-((1-(1-(4-((1R,2S)-6-hydroxy-2-phenyl-1,2,3,4-tetrahydronaphthalen-1-yl)phenyl)azetidine-3-carbonyl)piperidin-4-yl)methyl)-6,7-dihydropyrrolo[3,4-f]isoindole-1,3(2H,5H)-dione]
8 | > 100 nM | O=C1CCC(N2C(=O)c3cc4c(cc3C2=O)CN(CC2CN(C(=O)C3CN(c5ccc([C@@H]6c7ccc(O)cc7CC[C@@H]6c6ccccc6)cc5)C3)C2)C4)C(=O)N1 (mixture of isomers) [E 158, Rac-2-(2,6-dioxopiperidin-3-yl)-6-((1-(1-(4-((1R,2S)-6-hydroxy-2-phenyl-1,2,3,4-tetrahydronaphthalen-1-yl)phenyl)azetidine-3-carbonyl)azetidin-3-yl)methyl)-6,7-dihydropyrrolo[3,4-f]isoindole-1,3(2H,5H)-dione]
9 | > 100 nM | O=C1CCC(N2C(=O)c3cc4c(cc3C2=O)CN(C(=O)CN2CCC3(CC2)CCN(c2ccc([C@@H]5c6ccc(O)cc6CC[C@@H]5c5ccccc5)cc2)CC3)CC4)C(=O)N1 (mixture of isomers) [E 161, rac-2-(2,6-dioxopiperidin-3-yl)-6-(2-(9-(4-((1R,2S)-6-hydroxy-2-phenyl-1,2,3,4-tetrahydronaphthalen-1-yl)phenyl)-3,9-diazaspiro[5.5]undecan-3-yl)acetyl)-5,6,7,8-tetrahydro-1H-pyrrolo[3,4-g]isoquinoline-1,3(2H)-dione]
10 | 10 to 100 nM | O=C1CCC(N2C(=O)c3cc4c(cc3C2=O)CN(CC(=O)N2CCC3(CC2)CCN(c2ccc([C@@H]5c6ccc(O)cc6CC[C@@H]5c5ccccc5)cc2)CC3)CC4)C(=O)N1 (mixture of isomers) [E 162, rac-2-(2,6-dioxopiperidin-3-yl)-6-(2-(9-(4-((1R,2S)-6-hydroxy-2-phenyl-1,2,3,4-tetrahydronaphthalen-1-yl)phenyl)-3,9-diazaspiro[5.5]undecan-3-yl)-2-oxoethyl)-5,6,7,8-tetrahydro-1H-pyrrolo[3,4-g]isoquinoline-1,3(2H)-dione]
11 | 10 to 100 nM | O=C1CCC(N2C(=O)c3cc4c(cc3C2=O)CN(CC(=O)N2CC3(CCN(c5ccc([C@@H]6c7ccc(O)cc7CC[C@@H]6c6ccccc6)cc5)CC3)C2)CC4)C(=O)N1 (mixture of isomers) [E 163, rac-2-(2,6-dioxopiperidin-3-yl)-6-(2-(7-(4-((1R,2S)-6-hydroxy-2-phenyl-1,2,3,4-tetrahydronaphthalen-1-yl)phenyl)-2,7-diazaspiro[3.5]nonan-2-yl)-2-oxoethyl)-5,6,7,8-tetrahydro-1H-pyrrolo[3,4-g]isoquinoline-1,3(2H)-dione]
12 | 10 to 100 nM | O=C1CCC(N2C(=O)c3cc4c(cc3C2=O)CN(CC(=O)N2CC3(CCN(c5ccc([C@@H]6c7ccc(O)cc7CC[C@@H]6c6ccc(F)cc6)cc5)CC3)C2)CC4)C(=O)N1 (mixture of isomers) [E 164, rac-2-(2,6-dioxopiperidin-3-yl)-6-(2-(7-(4-((1R,2S)-2-(4-fluorophenyl)-6-hydroxy-1,2,3,4-tetrahydronaphthalen-1-yl)phenyl)-2,7-diazaspiro[3.5]nonan-2-yl)-2-oxoethyl)-5,6,7,8-tetrahydro-1H-pyrrolo[3,4-g]isoquinoline-1,3(2H)-dione]
13 | 10 to 100 nM | O=C1CCC(N2C(=O)c3cc4c(cc3C2=O)CN(CC(=O)N2CCC3(CC2)CCN(c2ccc([C@@H]5c6ccc(O)cc6CC[C@@H]5c5ccc(F)cc5)cc2)CC3)CC4)C(=O)N1 (mixture of isomers) [E 165, rac-2-(2,6-dioxopiperidin-3-yl)-6-(2-(9-(4-((1R,2S)-2-(4-fluorophenyl)-6-hydroxy-1,2,3,4-tetrahydronaphthalen-1-yl)phenyl)-3,9-diazaspiro[5.5]undecan-3-yl)-2-oxoethyl)-5,6,7,8-tetrahydro-1H-pyrrolo[3,4-g]isoquinoline-1,3(2H)-dione]
14 | > 100 nM | O=C1CCC(N2C(=O)c3cc4c(cc3C2=O)CN(C(=O)CN2CC3(CCN(c5ccc([C@@H]6c7ccc(O)cc7CC[C@@H]6c6ccccc6)cc5)CC3)C2)CCC4)C(=O)N1 (mixture of isomers) [E 168, rac-2-(2,6-dioxopiperidin-3-yl)-6-(2-(7-(4-((1R,2S)-6-hydroxy-2-phenyl-1,2,3,4-tetrahydronaphthalen-1-yl)phenyl)-2,7-diazaspiro[3.5]nonan-2-yl)acetyl)-6,7,8,9-tetrahydroazepino[3,4-f]isoindole-1,3(2H,5H)-dione]
15 | 10 to 100 nM | O=C1CCC(N2C(=O)c3cc4c(cc3C2=O)CN(CC(=O)N2CCC3(CC2)CCN(c2ccc([C@@H]5c6ccc(O)cc6CC[C@@H]5c5ccccc5)cc2)CC3)CC4)C(=O)N1 (mixture of isomers) [E 172, rac-2-(2,6-dioxopiperidin-3-yl)-6-(2-(9-(4-((1R,2S)-6-hydroxy-2-phenyl-1,2,3,4-tetrahydronaphthalen-1-yl)phenyl)-3,9-diazaspiro[5.5]undecan-3-yl)-2-oxoethyl)-5,6,7,8-tetrahydro-1H-pyrrolo[3,4-g]isoquinoline-1,3(2H)-dione]
16 | > 100 nM | O=C1CCC(N2C(=O)c3cc4c(cc3C2=O)CN(CC(=O)N2CC3(CCN(c5ccc([C@@H]6c7ccc(O)cc7CC[C@@H]6c6ccccc6)cc5F)CC3)C2)C4)C(=O)N1 (mixture of isomers) [E 173, Rac-2-(2,6-dioxopiperidin-3-yl)-6-(2-(7-(2-fluoro-4-((1R,2S)-6-hydroxy-2-phenyl-1,2,3,4-tetrahydronaphthalen-1-yl)phenyl)-2,7-diazaspiro[3.5]nonan-2-yl)-2-oxoethyl)-6,7-dihydropyrrolo[3,4-f]isoindole-1,3(2H,5H)-dione]
